Measurements reported in BindingDB's records for patent US10913753 (Valo Early Discovery, 2021).

Legend:
[1] = target: T1, Ubiquitin carboxyl-terminal hydrolase 28 (Homo sapiens, UniProt Q96RU2); assay: Biochemical Assay
T1 sequence (Q96RU2 whole entry): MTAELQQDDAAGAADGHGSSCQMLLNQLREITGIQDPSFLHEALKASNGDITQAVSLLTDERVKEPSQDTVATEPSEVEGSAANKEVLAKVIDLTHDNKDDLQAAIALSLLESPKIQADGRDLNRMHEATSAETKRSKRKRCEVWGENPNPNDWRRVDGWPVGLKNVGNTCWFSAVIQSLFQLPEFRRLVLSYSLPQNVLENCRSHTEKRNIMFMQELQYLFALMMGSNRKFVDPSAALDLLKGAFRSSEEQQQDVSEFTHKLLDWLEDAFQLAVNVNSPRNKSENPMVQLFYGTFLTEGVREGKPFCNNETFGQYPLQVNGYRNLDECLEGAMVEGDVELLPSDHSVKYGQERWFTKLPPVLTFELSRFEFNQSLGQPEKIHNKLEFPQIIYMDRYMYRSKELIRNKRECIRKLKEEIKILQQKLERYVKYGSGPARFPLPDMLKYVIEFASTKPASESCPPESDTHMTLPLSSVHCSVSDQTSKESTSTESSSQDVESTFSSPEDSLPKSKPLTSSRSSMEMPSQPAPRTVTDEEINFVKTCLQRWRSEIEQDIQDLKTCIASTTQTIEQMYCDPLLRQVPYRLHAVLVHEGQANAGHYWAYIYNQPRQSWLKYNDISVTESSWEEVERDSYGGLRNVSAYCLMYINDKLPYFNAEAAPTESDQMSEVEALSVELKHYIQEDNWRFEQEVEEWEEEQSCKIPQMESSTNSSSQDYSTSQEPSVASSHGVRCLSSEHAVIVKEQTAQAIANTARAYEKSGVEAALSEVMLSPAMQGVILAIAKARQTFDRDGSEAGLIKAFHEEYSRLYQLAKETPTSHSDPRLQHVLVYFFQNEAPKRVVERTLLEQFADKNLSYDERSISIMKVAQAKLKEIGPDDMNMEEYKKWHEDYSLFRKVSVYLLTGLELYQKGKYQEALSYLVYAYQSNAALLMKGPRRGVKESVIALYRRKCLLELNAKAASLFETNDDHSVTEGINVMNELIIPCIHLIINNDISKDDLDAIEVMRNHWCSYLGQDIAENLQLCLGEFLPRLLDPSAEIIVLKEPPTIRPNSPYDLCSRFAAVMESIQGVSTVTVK
Protocol: USP28: The assay was performed in a final volume of 20 uL in assay buffer containing 20 mM Tris-HCl (pH 8.0, (1M Tris-HCl, pH 8.0 solution; Corning 46-031-CM)), 2 mM CaCl2 (1M Calcium Chloride solution; Sigma #21114) 2 mM BME (2-Mercaptoethanol; Sigma 63689-25ML -F), 0.01% Prionex (0.22 uM filtered, Sigma #G-0411), and 0.01% Triton X-100. Stock compound solutions were stored at […] as 10 mM in DMSO. Up to 1 month prior to the assay, 2 mM test compounds were pre-dispensed into assay plates (Black, low volume; Corning #3820) and […] Prestamped assay plates were allowed to come to room temperature on the day of the assay. For the screen, 100 nL of 2 mM was pre-dispensed for a final screening concentration of 10 uM (DMSO(fc)=0.5%). […] Plates were incubated stacked for 90 minutes at room temperature before fluorescence was read on the Envision (Excitation at 485 nm and Emission at 535 nm; Perkin Elmer) or on the PheraSTAR (Excitation at 485 nm and Emission at 535 nm; BMG Labtech).

[2] = target: T2, Ubiquitin carboxyl-terminal hydrolase 25 (Homo sapiens, UniProt Q9UHP3); assay: Biochemical Assay
T2 sequence (Q9UHP3 whole entry): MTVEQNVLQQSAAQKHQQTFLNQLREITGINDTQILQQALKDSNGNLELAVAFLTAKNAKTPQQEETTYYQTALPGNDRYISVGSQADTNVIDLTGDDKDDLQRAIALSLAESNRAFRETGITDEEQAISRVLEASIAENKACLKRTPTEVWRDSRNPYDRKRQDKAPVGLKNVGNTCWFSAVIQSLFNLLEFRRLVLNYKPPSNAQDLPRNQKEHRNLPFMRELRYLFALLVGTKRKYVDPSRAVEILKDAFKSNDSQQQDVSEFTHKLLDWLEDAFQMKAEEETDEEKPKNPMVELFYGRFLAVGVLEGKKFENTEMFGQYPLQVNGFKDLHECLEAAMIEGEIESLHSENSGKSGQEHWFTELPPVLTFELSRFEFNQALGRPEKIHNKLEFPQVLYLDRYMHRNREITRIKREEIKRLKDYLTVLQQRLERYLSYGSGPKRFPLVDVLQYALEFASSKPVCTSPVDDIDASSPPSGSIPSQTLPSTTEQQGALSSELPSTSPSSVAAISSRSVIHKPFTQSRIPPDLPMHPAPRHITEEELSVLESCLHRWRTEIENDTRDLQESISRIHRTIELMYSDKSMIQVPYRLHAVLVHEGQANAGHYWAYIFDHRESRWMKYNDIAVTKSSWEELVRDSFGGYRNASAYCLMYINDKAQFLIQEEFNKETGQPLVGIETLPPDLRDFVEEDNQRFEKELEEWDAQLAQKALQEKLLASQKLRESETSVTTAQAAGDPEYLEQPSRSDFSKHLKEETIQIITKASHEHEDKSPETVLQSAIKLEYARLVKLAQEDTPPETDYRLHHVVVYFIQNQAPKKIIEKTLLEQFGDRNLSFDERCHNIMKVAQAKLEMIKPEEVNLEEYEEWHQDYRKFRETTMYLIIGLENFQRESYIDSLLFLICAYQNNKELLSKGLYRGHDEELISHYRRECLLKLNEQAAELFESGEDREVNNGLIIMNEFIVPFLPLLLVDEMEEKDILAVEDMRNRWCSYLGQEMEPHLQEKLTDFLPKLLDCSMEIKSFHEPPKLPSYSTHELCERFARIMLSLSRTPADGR
Protocol: USP25: The assay was performed in a final volume of 9 uL in assay buffer containing 20 mM Tris-HCl (pH 8.0, (1M Tris-HC1, pH 8.0 solution; Corning 46-031-CM)), 3 mM BME (2-Mercaptoethanol; Sigma 63689-25ML-F), 0.03% BGG (0.22 uM filtered, Sigma, G7516-25G), and 0.01% Triton X-100 (Sigma, T9284-10L). Nanoliter quantities of 10-point, 3-fold serial dilution in DMSO was pre-dispensed into 1536 assay plates (Corning, #3724BC) for a final test concentration of 25 uM to 1.3 nM, top to lowest dose, respectively. Enzyme USP25, construct USP25-His6, (Boston Biochem E-546). Concentration and incubation times were optimized for the maximal signal-to-background while maintaining initial velocity conditions at a fixed substrate concentration. The final concentration of the enzyme in the assay was 75 pM. Final substrate (Ub -Rh110; Ubiquitin-Rhodamine 110, R&D Systems #U-555) concentration was 25 nM with [Ub -Rh110] Km. 3 uL of 2x enzyme was added to assay plates (pre-stamped with compound) preincubated with USP25 for 30 minutes and then 3 uL of 2x Ub-Rh110 was added to assay plates. Plates were incubated for 45 minutes at room temperature before addition of 3 uL of stop solution (final concentration of 10 mM citric acid (Sigma, 251275-500G)). Fluorescence was read on the Envision (Excitation at 485 nm and Emission at 535 nm; Perkin Elmer) or on the PheraSTAR (Excitation at 485 nm and Emission at 535 nm; BMG Labtech).

Row | IC50 [1] | IC50 [2] | Structure (SMILES)
1 | in the range around 1100 nM | in the range around 6000 nM | CN[C@H]1CN(c2nc(F)c(CCNC(=O)c3sc4nc(C)ccc4c3N)cc2F)CC1C (stereo partly specified) [US10913753, Compound I-214]
2 | < 200 nM | in the range around 1100 nM | Nc1c(C(=O)NCCc2ccc([C@H]3CCNC3)cc2)sc2ncccc12 [US10913753, Compound I-180]
3 | < 200 nM | in the range around 1100 nM | Nc1c(C(=O)NCCc2ccc(C3CCNC3)cc2)sc2ncccc12 (stereo unspecified) [US10913753, Compound I-181]
